# Test results as given in patent US12091393B2, “Small molecule vaccine adjuvant for enhancing or prolonging immune response” (The Regents of the University of California, priority 2018, dated 2024).
# “Also recorded” adds a separate entry of the source. Like-named read-outs stand apart in the source and are kept apart here.
# What was measured:
# NF-κB [1] = assay: cell-based NF-κB FRET assay; conditions: compound + LPS; two point normalized, compound 1 as 200%, LPS (10 ng/mL) as 100%
# Source text: Site A was assigned the 4-substituent of thiazole ring, site B was the thiazole ring itself, site C was the central amide bond in the structure, site D was the benzene ring bearing 1,4-carboxyl and sulfamoyl group, site E was the sulfonamide functional group and site F was the amide substituent on the sulfamoyl group.
# NF-κB [2] = assay: Measurement of NF-κB activation using THP1-Blue NF-κB cells (SEAP); format: cell-based; conditions: for activity at 5 µM: 20 h, two point normalized, compound 1 as 200%; for NF-κB activity (SAR discussion, in words): evaluated in both the presence and absence of LPS
# THP-1 cells = assay: Cell viability assay (MTT); format: cell-based; conditions: compound 5 μM alone, 18 h, normalized to DMSO as 100%
# Experimental: THP-1 cells were plated in 96-well plates (10^5 cells/well) in 100 μL RPMI supplemented with 10% FBS, 100 U/mL penicillin and 100 μg/ml streptomycin. Compounds were dissolved in DMSO at 1 mM stock solution and were further diluted to 10 μM in the assay medium. 100 μL of this solution was added to the cells to obtain a final compound concentration of 5 μM ([…]). After 18 h incubation, a solution of MTT in assay media (0.5 mg/mL) was added to each well and further incubated for 4 to 6 h, followed by addition of cell lysis buffer (15% w/v SDS and 0.12% v/v 12N HCl aqueous solution), incubated overnight, and then absorbance measured at 570 nm using 650 nm as reference using Tecan Infinite M200 plate reader.
# [3] = compound 5 μM + LPS, LPS (10 ng/mL) as 100%, read-out: NF-κB SEAP Compound + LPS % Activation
# [4] = compound 5 μM alone, LPS or DMSO as 100%, read-out: NF-κB SEAP Compound alone % Activation
SMILES,NF-κB FRET Compound + LPS % Activation (NF-κB [1]) [%],activity at 5 µM (NF-κB [2]; [3]) [%],activity at 5 µM (NF-κB [2]; [4]) [%],"NF-κB activity (SAR discussion, in words) (NF-κB [2])",MTT Compound alone % Viability (THP-1 cells) [%],"NF-κB activity when tested alone (in words) (NF-κB [2]; compound alone, without LPS)"
"CCCCCc1sc(NC(=O)c2ccc(S(=O)(=O)N3CCCCC3)cc2)nc1-c1cc(C)ccc1C [Compound 18t, N-(4-(2,5-dimethylphenyl)-5-pentylthiazol-2-yl)-4-(piperidin-1-ylsulfonyl)benzamide]",213.25,132,119,loss in activity,110.37,–
"Cc1ccc(C)c(-c2csc(NCc3ccc(S(=O)(=O)N4CCCCC4)cc3)n2)c1 [Compound 34a, 4-(2,5-dimethylphenyl)-N-(4-(piperidin-1-ylsulfonyl)benzyl)thiazol-2-amine]",106.53,102,99.1,inactive,85.48,–
"Cc1ccc(C)c(-c2csc(C(=O)Nc3ccc(S(=O)(=O)N4CCCCC4)cc3)n2)c1 [Compound 34b, 4-(2,5-dimethylphenyl)-N-(4-(piperidin-1-ylsulfonyl)phenyl)thiazole-2-carboxamide]",134.57,104,98.8,weak activity,91.08,–
"Cc1ccc(C)c(-c2csc(N(C)C(=O)c3ccc(S(=O)(=O)N4CCCCC4)cc3)n2)c1 [Compound 34c, N-(4-(2,5-dimethylphenyl)thiazol-2-yl)-N-methyl-4-(piperidin-1-ylsulfonyl)benzamide]",143.05,105,101,inactive,97.43,–
"Cc1ccc(C)c(-c2csc(NC(=O)c3ccc(S(=O)(=O)N4CCCCC4)cn3)n2)c1 [Compound 46a, N-(4-(2,5-dimethylphenyl)thiazol-2-yl)-5-(piperidin-1-ylsulfonyl)picolinamide]",151.90,111,99.2,none of these modifications at site D or E were tolerated,94.46,–
"Cc1ccc(C)c(-c2csc(NC(=O)c3ccc(S(=O)(=O)N4CCCCC4)nc3)n2)c1 [Compound 46b, N-(4-(2,5-dimethylphenyl)thiazol-2-yl)-6-(piperidin-1-ylsulfonyl)nicotinamide]",146.35,115,100,none of these modifications at site D or E were tolerated,88.57,–
"Cc1ccc(C)c(-c2csc(NC(=O)c3ccc(SC4CCCCC4)cc3)n2)c1 [Compound 49a, 4-(cyclohexylthio)-N-(4-(2,5-dimethylphenyl)thiazol-2-yl)benzamide]",139.79,114,99.7,none of these modifications at site D or E were tolerated,85.22,–
"Cc1ccc(C)c(-c2csc(NC(=O)c3ccc(S(=O)(=O)C4CCCCC4)cc3)n2)c1 [Compound 49b, 4-(cyclohexylsulfonyl)-N-(4-(2,5-dimethylphenyl)thiazol-2-yl)benzamide]",136.43,114,99.8,none of these modifications at site D or E were tolerated,81.81,–
"Cc1ccc(C)c(-c2csc(NC(=O)c3ccc(C(=O)N4CCCCC4)cc3)n2)c1 [Compound 49c, N-(4-(2,5-dimethylphenyl)thiazol-2-yl)-4-(piperidine-1-carbonyl)benzamide]",134.09,109,99.3,none of these modifications at site D or E were tolerated,87.59,–
"Cc1ccc(C)c(-c2csc(NC(=O)c3cccc(C(=O)N4CCCCC4)c3)n2)c1 [Compound 49d, N-(4-(2,5-dimethylphenyl)thiazol-2-yl)-3-(piperidine-1-carbonyl)benzamide]",136.46,112,99.6,none of these modifications at site D or E were tolerated,88.06,–
"Cc1ccc(C)c(-c2csc(NS(=O)(=O)c3ccc(C(=O)N4CCCCC4)cc3)n2)c1 [Compound 55, N-(4-(2,5-dimethylphenyl)thiazol-2-yl)-4-(piperidine-1-carbonyl)benzenesulfonamide]",70.37,91.7,103,inactive,58.91,–
"CCCN(CC)S(=O)(=O)c1ccc(C(=O)Nc2nc(-c3cc(C)ccc3C)cs2)cc1 [Compound 58a, N-(4-(2,5-dimethylphenyl)thiazol-2-yl)-4-(N-ethyl-N-propylsulfamoyl)benzamide]",158.36,217,207,tolerated; also recorded: active,73.63,–
"CCCN(CCC)S(=O)(=O)c1ccc(C(=O)Nc2nc(-c3cc(C)ccc3C)cs2)cc1 [Compound 58b, N-(4-(2,5-dimethylphenyl)thiazol-2-yl)-4-(N,N-dipropylsulfamoyl)benzamide]",190.52,260,243,tolerated; also recorded: active,83.69,–
"CCCCN(CCCC)S(=O)(=O)c1ccc(C(=O)Nc2nc(-c3cc(C)ccc3C)cs2)cc1 [Compound 58c, 4-(N,N-dibutylsulfamoyl)-N-(4-(2,5-dimethylphenyl)thiazol-2-yl)benzamide]",104.47,105,103,lost activity,86.41,–
"CCN(c1ccccc1)S(=O)(=O)c1ccc(C(=O)Nc2nc(-c3cc(C)ccc3C)cs2)cc1 [Compound 58d, N-(4-(2,5-dimethylphenyl)thiazol-2-yl)-4-(N-ethyl-N-phenylsulfamoyl)benzamide]",74.73,89.8,105,inactive,81.42,–
"Cc1ccc(C)c(-c2csc(NC(=O)c3ccc(S(=O)(=O)NC4CCCCC4)cc3)n2)c1 [Compound 58e, 4-(N-cyclohexylsulfamoyl)-N-(4-(2,5-dimethylphenyl)thiazol-2-yl)benzamide]",52.23,94.5,98.3,inactive,93.65,–
"Cc1ccc(C)c(-c2csc(NC(=O)c3ccc(S(=O)(=O)N4CCN(C(=O)OC(C)(C)C)CC4)cc3)n2)c1 [Compound 58f, tert-butyl 4-((4-((4-(2,5-dimethylphenyl)thiazol-2-yl)carbamoyl)phenyl)sulfonyl)piperazine-1-carboxylate]",95.64,105,101,inactive,81.23,–
"CCOC1CCN(S(=O)(=O)c2ccc(C(=O)Nc3nc(-c4cc(C)ccc4C)cs3)cc2)CC1 [Compound 58g, N-(4-(2,5-dimethylphenyl)thiazol-2-yl)-4-((4-ethoxypiperidin-1-yl)sulfonyl)benzamide]",189.46,178,200,active,112.63,–
"CCCC1CCN(S(=O)(=O)c2ccc(C(=O)Nc3nc(-c4cc(C)ccc4C)cs3)cc2)CC1 [Compound 58h, N-(4-(2,5-dimethylphenyl)thiazol-2-yl)-4-((4-propylpiperidin-1-yl)sulfonyl)benzamide]",218.16,248,517,active; also recorded: most potent,111.27,very potent
"Cc1ccc(C)c(-c2csc(NC(=O)c3ccc(S(=O)(=O)N4CCNCC4)cc3)n2)c1 [Compound 58i, N-(4-(2,5-dimethylphenyl)thiazol-2-yl)-4-(piperazin-1-ylsulfonyl)benzamide]",101.27,104,101,inactive,75.86,–
